Measured values: PubChem BioAssay AID248 (DTP/NCI, 2004)
Several values for one entry are separate records, joined by “and”; a condition that tells them apart may be missing. Equal values may be shown once. Inconclusive results and toxic doses are left out.

System: L1210 leukemia ip in BDF1 mice, survival T/C
Assay: NCI In Vivo Anticancer Drug Screen. Data for tumor model L1210 Leukemia (intraperitoneal) in B6D2F1 (BDF1) mice
Settings: endpoint: mean survival time, higher = longer survival
In short: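 Ratio derived from survival: compound-dosed mice over vehicle-dosed mice, all bearing a transplantable tumor.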

[1] = dose: 100.0 mg/kg/injection, schedule: Q04DX002 (ip), vehicle: saline with Tween-80
[2] = dose: 100.0 mg/kg/injection, schedule: Q01DX009 (ip), vehicle: Klucel (hydroxypropylcellulose) (HPC)
[3] = dose: 100.0 mg/kg/injection, schedule: Q04DX003 (ip), vehicle: Klucel (hydroxypropylcellulose) (HPC)
[4] = dose: 200.0 mg/kg/injection, schedule: Q01DX009 (ip), vehicle: Klucel (hydroxypropylcellulose) (HPC)
[5] = dose: 200.0 mg/kg/injection, schedule: Q04DX003 (ip), vehicle: Klucel (hydroxypropylcellulose) (HPC)
[6] = dose: 400.0 mg/kg/injection, schedule: Q01DX009 (ip), vehicle: Klucel (hydroxypropylcellulose) (HPC)
[7] = dose: 400.0 mg/kg/injection, schedule: Q04DX003 (ip), vehicle: Klucel (hydroxypropylcellulose) (HPC)
[8] = dose: 6.25 mg/kg/injection, schedule: Q01DX001 (ip), vehicle: Klucel (hydroxypropylcellulose) (HPC)
[9] = dose: 100.0 mg/kg/injection, schedule: Q01DX001 (ip), vehicle: saline
[10] = dose: 200.0 mg/kg/injection, schedule: Q01DX001 (ip), vehicle: saline
[11] = dose: 400.0 mg/kg/injection, schedule: Q01DX001 (ip), vehicle: saline

Cc1ccc(Cl)cc1NC(=S)N(C)C was tested, and the T/C [1] was 98 % of control and the T/C (dose: 200.0 mg/kg/injection, schedule: Q04DX002 (ip), vehicle: saline with Tween-80) was 98 % of control.

In the case of COC(=O)CCCCCCCC(=O)OCC#CC#CCOC(=O)CCCCCCCC(=O)OC, the T/C [2] is reported as 95 % of control, the T/C [3] is reported as 107 % of control and the T/C [4] is reported as 90 % of control. For the same compound, the T/C [5] was 94 % of control, the T/C [6] was 95 % of control and the T/C [7] was 91 % of control.

Nc1cccc(CNC(=O)COc2ccc(Cl)cc2C(=O)O)c1 was tested, and the T/C (dose: 100.0 mg/kg/injection, schedule: Q01DX001 (ip), vehicle: saline with Tween-80) was 98 % of control, the T/C (dose: 200.0 mg/kg/injection, schedule: Q01DX001 (ip), vehicle: saline with Tween-80) was 95 % of control and the T/C (dose: 400.0 mg/kg/injection, schedule: Q01DX001 (ip), vehicle: saline with Tween-80) was 103 % of control.

With CC(C)/C=N/NC(N)=S the T/C (dose: 3.13 mg/kg/injection, schedule: Q01DX001 (ip), vehicle: Klucel (hydroxypropylcellulose) (HPC)) was 102 % of control, the T/C [8] was 118 % of control and the T/C (dose: 12.5 mg/kg/injection, schedule: Q01DX001 (ip), vehicle: Klucel (hydroxypropylcellulose) (HPC)) was 99 % of control and 102 % of control.

With O=C(CCl)c1ccc([N+](=O)[O-])o1 the T/C (dose: 1.56 mg/kg/injection, schedule: Q01DX001 (ip), vehicle: Klucel (hydroxypropylcellulose) (HPC)) was 98 % of control, the T/C (dose: 3.12 mg/kg/injection, schedule: Q01DX001 (ip), vehicle: Klucel (hydroxypropylcellulose) (HPC)) was 95 % of control and the T/C [8] was 96 % of control.

In the case of O=C1C(O)=C(O)C(=O)C(O)=C1O, the T/C [9] is reported as 103 % of control, the T/C [10] is reported as 100 % of control and the T/C [11] is reported as 105 % of control.

For SC1c2cc(Cl)ccc2-c2ccc(Cl)cc21, the T/C (dose: 100.0 mg/kg/injection, schedule: Q01DX001 (ip), vehicle: carboxymethylcellulose (CMC)) was 92 % of control, the T/C (dose: 200.0 mg/kg/injection, schedule: Q01DX001 (ip), vehicle: carboxymethylcellulose (CMC)) was 92 % of control and the T/C (dose: 400.0 mg/kg/injection, schedule: Q01DX001 (ip), vehicle: carboxymethylcellulose (CMC)) was 92 % of control.

With c1ccc(COCCNCCOCc2ccccc2)cc1 the T/C (dose: 12.5 mg/kg/injection, schedule: Q01DX009 (ip), vehicle: Klucel (hydroxypropylcellulose) (HPC)) was 100 % of control, the T/C (dose: 12.5 mg/kg/injection, schedule: Q04DX003 (ip), vehicle: Klucel (hydroxypropylcellulose) (HPC)) was 107 % of control and the T/C (dose: 25.0 mg/kg/injection, schedule: Q01DX009 (ip), vehicle: Klucel (hydroxypropylcellulose) (HPC)) was 96 % of control. The T/C (dose: 25.0 mg/kg/injection, schedule: Q04DX003 (ip), vehicle: Klucel (hydroxypropylcellulose) (HPC)) was 94 % of control, the T/C (dose: 50.0 mg/kg/injection, schedule: Q01DX009 (ip), vehicle: Klucel (hydroxypropylcellulose) (HPC)) was 95 % of control and the T/C (dose: 50.0 mg/kg/injection, schedule: Q04DX003 (ip), vehicle: Klucel (hydroxypropylcellulose) (HPC)) was 95 % of control.

With C#CCOS(=O)OCCCCCCCCCC (stereo not given) (tested in a mixture with another compound) the T/C [3] was 105 % of control, the T/C [5] was 91 % of control and the T/C [7] was 94 % of control.

For CC1CCc2nc3ccccc3nc21 (stereo not given), the T/C [9] was 91 % of control, the T/C [10] was 97 % of control and the T/C [11] was 91 % of control.

For CC/C(=C(\CC)c1ccc(OCCN(CCCl)CCCl)cc1)c1ccc(OCCN(CCCl)CCCl)cc1, the T/C (dose: 25.0 mg/kg/injection, schedule: Q04DX002 (ip), vehicle: saline with Tween-80) was 90 % of control, the T/C (dose: 50.0 mg/kg/injection, schedule: Q04DX002 (ip), vehicle: saline with Tween-80) was 94 % of control and the T/C [1] was 101 % of control.

With O=c1cccccc1O.O=c1cccccc1O.O=c1cccccc1O.[Cr] the T/C (dose: 75.0 mg/kg/injection, schedule: Q04DX003 (ip), vehicle: saline) was 100 % of control, the T/C (dose: 150.0 mg/kg/injection, schedule: Q04DX003 (ip), vehicle: saline) was 104 % of control and the T/C (dose: 300.0 mg/kg/injection, schedule: Q04DX003 (ip), vehicle: saline) was 90 % of control.

CCCCCOC(=O)Nc1ccc(S(=O)(=O)N(C)C)cc1 was tested, and the T/C [9] was 100 % of control, the T/C [10] was 108 % of control and the T/C [11] was 100 % of control.

In the case of O=C1c2ccccc2-c2cccc3cccc1c23, the T/C (dose: 50.0 mg/kg/injection, schedule: Q01DX001 (ip), vehicle: saline sonified) is reported as 94 % of control, the T/C (dose: 100.0 mg/kg/injection, schedule: Q01DX001 (ip), vehicle: saline sonified) is reported as 95 % of control and the T/C (dose: 100.0 mg/kg/injection, schedule: Q01DX009 (ip), vehicle: gum acacia) is reported as 105 % of control. For the same compound, the T/C (dose: 200.0 mg/kg/injection, schedule: Q01DX001 (ip), vehicle: saline sonified) was 97 % of control, the T/C (dose: 200.0 mg/kg/injection, schedule: Q01DX009 (ip), vehicle: gum acacia) was 96 % of control and the T/C (dose: 400.0 mg/kg/injection, schedule: Q01DX009 (ip), vehicle: gum acacia) was 102 % of control.

With CN(C)CCCC#N the T/C (dose: 100.0 mg/kg/injection, schedule: Q04DX003 (ip), vehicle: saline) was 97 % of control and the T/C (dose: 200.0 mg/kg/injection, schedule: Q04DX003 (ip), vehicle: saline) was 95 % of control.

In the case of C=C(Cl)CC1(C(=O)OCC)CCN(S(=O)(=O)c2ccc(C)cc2)c2ccccc2C1=O (stereo not given), the T/C [3] is reported as 94 % of control, the T/C [5] is reported as 98 % of control and the T/C [7] is reported as 88 % of control.

For CCN(CC)CC(=O)Nc1cccc2c1C(=O)c1c(c(O)c3ccccc3c1O)C2=O, the T/C (dose: 50.0 mg/kg/injection, schedule: Q01DX009 (ip), vehicle: saline with Tween-80) was 94 % of control, the T/C (dose: 100.0 mg/kg/injection, schedule: Q01DX009 (ip), vehicle: saline with Tween-80) was 103 % of control and the T/C (dose: 100.0 mg/kg/injection, schedule: Q04DX003 (ip), vehicle: saline with Tween-80) was 101 % of control. For the same compound, the T/C (dose: 200.0 mg/kg/injection, schedule: Q01DX009 (ip), vehicle: saline with Tween-80) was 98 % of control, the T/C (dose: 200.0 mg/kg/injection, schedule: Q04DX003 (ip), vehicle: saline with Tween-80) was 155 % of control and the T/C (dose: 400.0 mg/kg/injection, schedule: Q04DX003 (ip), vehicle: saline with Tween-80) was 102 % of control.

For CCC(CO)NC(=O)/C=C/c1cc(OC)ccc1OC (stereo not given), the T/C (dose: 150.0 mg/kg/injection, schedule: Q04DX003 (ip), vehicle: saline with Tween-80) was 111 % of control, the T/C (dose: 300.0 mg/kg/injection, schedule: Q04DX003 (ip), vehicle: saline with Tween-80) was 102 % of control and the T/C (dose: 600.0 mg/kg/injection, schedule: Q04DX003 (ip), vehicle: saline with Tween-80) was 109 % of control.

In the case of COc1ccc2c(c1)c1c(C)c3cnccc3c(C)c1n2CCCN, the T/C (dose: 0.5 mg/kg/injection, schedule: Q01DX009 (ip), vehicle: saline) is reported as 96 % of control, the T/C (dose: 1.0 mg/kg/injection, schedule: Q01DX009 (ip), vehicle: saline) is reported as 102 % of control and the T/C (dose: 3.0 mg/kg/injection, schedule: Q01DX009 (ip), vehicle: saline) is reported as 104 % of control. For the same compound, the T/C (dose: 3.0 mg/kg/injection, schedule: Q04DX003 (ip), vehicle: saline) was 104 % of control, the T/C (dose: 6.0 mg/kg/injection, schedule: Q01DX009 (ip), vehicle: saline) was 112 % of control and the T/C (dose: 6.0 mg/kg/injection, schedule: Q04DX003 (ip), vehicle: saline) was 104 % of control. For the same compound, the T/C (dose: 12.0 mg/kg/injection, schedule: Q01DX009 (ip), vehicle: saline) was 106 % of control and the T/C (dose: 12.0 mg/kg/injection, schedule: Q04DX003 (ip), vehicle: saline) was 107 % of control.

CS(=O)(=O)OCCNc1ccc([N+](=O)[O-])cc1 was tested, and the T/C (dose: 1.0 mg/kg/injection, schedule: Q01DX001 (ip), vehicle: saline) was 101 % of control, the T/C (dose: 2.0 mg/kg/injection, schedule: Q01DX001 (ip), vehicle: saline) was 101 % of control and the T/C (dose: 4.0 mg/kg/injection, schedule: Q01DX001 (ip), vehicle: saline) was 98 % of control. The T/C (dose: 8.0 mg/kg/injection, schedule: Q01DX001 (ip), vehicle: saline) was 104 % of control, the T/C (dose: 38.0 mg/kg/injection, schedule: Q01DX015 (ip), vehicle: saline) was 98 % of control and the T/C (dose: 57.0 mg/kg/injection, schedule: Q01DX015 (ip), vehicle: saline) was 95 % of control. The T/C (dose: 85.0 mg/kg/injection, schedule: Q01DX015 (ip), vehicle: saline) was 93 % of control.

In the case of Cc1ccc(C)c(NC(=O)N(CCO)C2CCCCC2)c1, the T/C [2] is reported as 98 % of control, the T/C [3] is reported as 104 % of control and the T/C [4] is reported as 95 % of control. The T/C [5] was 103 % of control, the T/C [6] was 90 % of control and the T/C [7] was 95 % of control.
